The source of these data is PubChem BioAssay (NCI).

Test in all cases: growth of human tumour cells (NCI), 48 h
Assay [1] deals with HCC-2998 colon.
The subject of assay [2] is KM12 colon.
In assay [3] the test system is TK-10 renal.
Assay [4] relates to OVCAR-3 ovarian.
Assay [5] relates to LOX IMVI melanoma.
Assay [6] concerns UACC-62 melanoma.
The test system of assay [7] is UACC-257 melanoma.
In assay [8] the test system is MALME-3M melanoma.
The subject of assay [9] is HS 578T breast.
Assay [10] deals with A498 renal.

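Dose response: 5 concentrations. Exposure: 48 h. Format: 96-well plates. Endpoint: linear interpolation; highest concentration if not reached. Here, GI50 denotes the concentration required for 50% inhibition of growth. The concentration for full growth arrest is given as TGI.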

For `CC1(C)CC2C=C(C=O)C3(C=O)CC3(C)C2C1` (configuration not stated), the TGI in [1] was 18.2 µM; in [2], 13.5 µM; in [3] it was 5.62 µM; in [4] it was 2.27 µM; in assay [5] it was 2.81 µM; in assay [6], 17.1 µM. In addition, in assay [7], the TGI is 7.11 µM.
For the compound `C=C1C(=O)O[C@@H]2C[C@@H]1CC[C@@]1(C)O[C@@H]1CC[C@@]1(C)O[C@@H]1CC[C@@]2(C)O`, the GI50 in assay [1] was 4.21 µM; in assay [2], 26.2 µM; in assay [8], 16.2 µM; in assay [9] it was 21.6 µM; in assay [3], 23.4 µM; in assay [4] it was 15.7 µM. For the same compound, the GI50 is 15.7 µM in assay [5], 14.6 µM in assay [6] and 43.6 µM in assay [7]. In addition, the TGI in assay [1] is 21.1 µM; in [2], above 100 µM; in assay [8], 42.3 µM; in assay [9], 61.2 µM; in assay [3], 67.6 µM; in assay [4], 37.3 µM. The TGI in assay [5] was 31 µM; in assay [6], 30.2 µM; in assay [7], above 100 µM.
For `C=C1Oc2nc3ccccc3c(=O)n2C1(C)C`, the TGI in [1] was above 100 µM; in assay [2], above 10 µM; in [8], above 100 µM; in assay [3], above 100 µM; in assay [4], above 10 µM; in [5], above 100 µM. For the same compound, the TGI in assay [10], in assay [6] and in assay [7] was above 100 µM each time.
As to `COc1cccc(NC(=O)CC(=O)N2NC(C)C(N=Nc3cccc(C(=O)O)c3)C2=O)c1` (configuration not stated), the TGI in assay [1], in assay [2], in [8], in assay [3], in [4] and in assay [5] was above 100 µM throughout. The TGI in assay [10], in assay [6] and in assay [7] was above 100 µM throughout.
Regarding `CCc1c(Cl)nc(Cl)nc1Cl`, the TGI worked out at 0.774 µM in assay [1]; 4.16 µM in assay [2]; 0.718 µM in assay [8]; 4.77 µM in assay [3]; 0.374 µM in [4]; 1.54 µM in assay [5]. Further, the TGI amounted to 16.8 µM in assay [10], 2.28 µM in [6] and 2.79 µM in assay [7].
For `O=c1c2ccccc2c(=O)c2c1cc(Cl)c1[nH]c3c([nH]c12)c(Cl)cc1c(=O)c2ccccc2c(=O)c13`, the TGI in [1], in [2], in assay [8], in [3], in [4] and in [10] was above 100 µM in each case. Besides, the TGI in assay [6] and in [7] was above 100 µM in each case.
Consider `O=C(O)C1c2ccccc2C(C(=O)O)c2ccccc21` (configuration not stated), for which the TGI in assay [1], in assay [2], in assay [8], in assay [3], in [5] and in assay [10] was above 100 µM each time. Further, the TGI in [6] and in [7] was above 100 µM throughout.
`Cc1cc(C(=O)N2CCN(Cc3ccccc3)CC2)c(C)o1`: the TGI in assay [1], in assay [2], in assay [3], in assay [4], in assay [5] and in [10] was above 100 µM each time. Also, the TGI in assay [6] and in assay [7] was above 100 µM throughout.
For the compound `CCC[CH2][Sn]([CH2]CCC)([O]C(=O)c1nccnc1N)[O]C(=O)c1nccnc1N`, the GI50 in assay [1] is 1.21 µM; in [2] it was 1.42 µM; in [8], 0.57 µM; in [3] it was 0.742 µM; in assay [4], 1.21 µM; in assay [5], 0.365 µM. Moreover, the GI50 in assay [10] was 0.819 µM; in assay [6], 0.998 µM; in [7] it was 1.03 µM. Also, the TGI in assay [1] came to 2.45 µM; in [2], 2.74 µM; in [8], 2.04 µM; in [3], 2.02 µM; in [4] it was 2.45 µM; in assay [5] it was 1.48 µM. In addition, the values for the TGI in [10], in [6] and in [7] were 2.07 µM, 2.16 µM and 2.23 µM, respectively.
For `O=C(O)C#CCO`, the TGI in assay [2], in assay [8], in assay [3], in [4], in [5] and in assay [10] was above 100 µM in each case. The TGI in [6] and in assay [7] was above 100 µM throughout.
On to `NCC1OC(OC2C(CO)OC(OC3C(O)C(N)CC(N)C3OC3OC(CO)C(O)C(O)C3N)C2O)C(N)C(O)C1O` (configuration not stated), for which the GI50 in assay [1], in assay [2], in [9], in [3], in assay [4] and in assay [5] was above 50 µg/mL in each case. The GI50 in assay [6] and in assay [7] was above 50 µg/mL each time. Moreover, the TGI in [1], in assay [2], in assay [9], in [3], in [4] and in assay [5] was above 50 µg/mL in each case. Also, the TGI in assay [6] and in [7] was above 50 µg/mL in each case.
With `O=C(Nc1ccccc1Br)c1cccc([N+](=O)[O-])c1O`, the TGI was determined as 16.6 µM in [1]; 19.3 µM in assay [2]; 7.38 µM in [8]; 12.6 µM in assay [3]; 7.51 µM in assay [4]; 10.7 µM in [5]. Besides, the TGI in [10] is 9.05 µM; in assay [6] it was 16.4 µM; in assay [7] it was 10.1 µM.
